{"source": "patent US9359322B2", "about": "“C-linked glucuronide of N-(4-hydroxybenzyl) retinone, analogs thereof, and methods of using the same to inhibit neoplastic cell growth” (Wisconsin Alumni Research Foundation, priority 2005, dated 2016)", "key": {"[1]": {"assay": "Plasma triglyceride measurement", "assay_type": "in vivo, rat", "conditions": "2 mmol/kg diet, 22 days; FIG. 2A", "description": "Plasma Triglyceride Measurement. Bloods were drawn from anesthetized animals in the presence of EDTA as an anticoagulant, and the resulting plasma was used for the measurement of plasma “true” triglyceride levels using a kit from Sigma-Aldrich (Saint Louis, Mo.). Briefly, the total plasma triglyceride and glycerol concentrations were determined, and the glycerol component was subtracted from the total plasma triglyceride measurement to obtain the “true” serum triglyceride concentration."}, "[2]": {"test_system": "DMBA-induced rat mammary tumor", "assay": "DMBA-induced rat mammary tumor model, retinoid-containing diets", "assay_type": "in vivo", "description": "Preliminary evaluation of the mammary tumor chemotherapeutic activity of 4-HBRCG (7) was conducted, and its toxicity profile was also assessed. As previously described,^7, 12 tumor-bearing female rats (treated ca. 50 days earlier with 7,12-dimethylbenz(a)anthracene [DMBA]) were fed the control or retinoid-containing diets (RA (2), 4-HPR (3) or 4-HBRCG (7)) at 2 mmole/kg diet for 22 days.\n(§1) Animal Studies: Mammary tumors were induced by intragastric intubation of 50-day old female Sprague-Dawley rats (Harlan Industries, Indianapolis, Ind.) with a single dose of 15 mg DMBA in 1.0 ml of sesame oil per rat. The rats were then maintained on a powdered Teklad 22/5 rodent chow diet (W) 8640 (Harlan Industries, Indianapolis, Ind.), and allowed food and water ad libitum. Four months later, rats which had developed palpable tumors were randomly assigned to the experimental groups (4 rats/group). The retinoid-treated groups were fed diets supplemented with 2 mmol/kg diet of atRA, 4-HPR, or 4-HBRCG, respectively. The retinoids were added to the diet in a vehicle consisting of 25 ml of ethanol: tricaprylin (1:4 v/v) plus 2% (w/v) of α-tocopherol as previously described.^9 This vehicle was also added to the control diet. The additives were blended into the chow diets using a Hobart food mixer. The diets were fed in stainless steel feeders designed with food hoppers. The food was replaced weekly with freshly prepared diets. Food consumption was determined once weekly, and from that the average daily consumption/rat was estimated. These diets were continuously fed for 22 days. Animals were also weighted weekly and monitored for general health status and signs of possible toxicity due to treatment.\n(§2) Baseline measurement of initial tumor sizes, numbers and rat body weights were determined immediately before commencement of treatments, and final measurements were recorded just prior to sacrifice of the animals. Animals were palpated for tumors twice weekly and tumor diameters were measured weekly by a micrometer caliper. Tumor volumes were calculated using the formula [V= 4/3 πr^3] where r is one-half the mean of the sum of the largest diameter and the axis at right angle to it. All tumors as well as lungs, liver, kidney and femur were excised at the end of the experiment for chemical and histopathological evaluation. Blood samples were also taken from each animal for determination of plasma retinol and triglyceride levels."}, "[3]": {"test_system": "CYP26B1 mRNA", "assay": "Induction of CYP26B1 mRNA in lung (Q-PCR)", "assay_type": "in vivo, rat", "conditions": "at sacrifice, retinoid-fed rats, 2 mmol/kg diet; data not shown"}, "[4]": {"assay": "Plasma retinol level (HPLC)", "assay_type": "in vivo, rat", "conditions": "2 mmol/kg diet", "description": "as §2\nPlasma Retinoid Assay. To 500 μL of plasma was added 150 μL of ethanol containing 0.75 μg of internal standard (N-(4-chlorophenyl) retinamide). After mixing 30 sec., 500 μL of ethyl acetate was added followed by 1 min. of mixing and centrifugation for 5 minutes at 1000 rpm in an IEC CL centrifuge. The ethyl acetate layer was removed and syringe filtered through a 0.45 um filter. The ethyl acetate extraction was repeated two more times. The combined extracts were evaporated and the residue reconstituted in 100 μL of methanol. The methanol extract (20 μL) was analyzed by HPLC on a Beckman Instruments model 127 instrument equipped with a model 166 UV detector. Chromatography was done on a precolumn equipped 250×4.6 mm Bechman Ultrasphere ODS column with an 85% methanol/water mobile phase (both containing 10 mM ammonium acetate) flowing at 1 mL/min. Analysis for both internal standard and retinol was conducted at 350 nm and internal standard recoveries and retinol levels were determined by comparison with standard curves, with adjustment of the retinol level based on recovery. Recoveries of internal standard averaged ca. 78%. […] In the 4-HPR treated group, plasma levels of this retinoid were evaluated simultaneously in the same samples as above. In order to avoid interfering substances, plasma treatment retinoid levels for RA and 4-HBRCG were measured using the above system and a step gradient of 75% methanol for 15 min. followed by 85% methanol for 40 minutes."}, "[5]": {"assay": "Body weight change during retinoid feeding", "assay_type": "in vivo, rat", "conditions": "relative to baseline body weight over 22 days; 2 mmol/kg diet", "description": "as §1, §2"}, "[6]": {"test_system": "CYP26A1 mRNA", "assay": "Induction of CYP26A1 mRNA in liver (Q-PCR)", "assay_type": "in vivo, rat", "conditions": "at sacrifice, retinoid-fed rats, 2 mmol/kg diet; FIG. 4"}, "[7]": {"conditions": "number of individual tumors, 2 mmol/kg diet, 22 days"}}, "note": "Marks after values point to notes of the source that are not given here."}
{"smiles": "CC1=C(/C=C/C(C)=C/C=C/C(C)=C/C(=O)Cc2ccc(CC3OC(C(=O)O)C(O)C(O)C3O)cc2)C(C)(C)CCC1", "note": "[4-HBRCG (7), 2,6-Anhydro-7-deoxy-7-[4-(retinoylmethyl)-phenyl]-L-glycero-L-gulo-heptinoic acid]", "values": [{"measurement": "Effect on serum triglyceride concentration", "setting": "[1]", "result": "did not cause this undesirable effect"}, {"measurement": "% Change in tumor volume from baseline", "setting": "[2]; 2 mmol/kg diet for 22 days", "result": "−33 ^d %"}, {"measurement": "Final tumor volume", "setting": "[2]; 2 mmol/kg diet for 22 days, mean ± SEM", "result": "0.08 ± 0.05", "unit": "cm^3"}, {"measurement": "Initial tumor volumes", "setting": "[2]; baseline before treatment, mean ± SEM", "result": "0.12 ± 0.06", "unit": "cm^3"}, {"measurement": "Complete regression (tumors that totally disappeared)", "setting": "[2]; [7]", "result": 2}, {"measurement": "No effect", "setting": "[2]; [7]", "result": 2}, {"measurement": "Partial regression (tumors with 25-75% decrease in volume)", "setting": "[2]; [7]", "result": 6}, {"measurement": "New tumors", "setting": "[2]; number of tumors, 2 mmol/kg diet, 22 days", "result": 0}, {"measurement": "Induction of CYP26B1 mRNA in lung", "setting": "[3]", "result": "did not induce these cytochrome p450 mRNAs"}, {"measurement": "Effect on blood retinol", "setting": "[4]", "result": "did not produce any significant reduction in blood retinol"}, {"measurement": "Plasma retinol", "setting": "[4]; day 22 of treatment, mean ± SEM", "result": "0.40 ± 0.04", "unit": "µg/mL"}, {"measurement": "% Weight change", "setting": "[5]", "result": "+3%"}, {"measurement": "Induction of CYP26A1 mRNA in liver", "setting": "[6]", "result": "did not induce these cytochrome p450 mRNAs"}]}
